In ChEMBL document CHEMBL1201862, “PubChem BioAssay data set” (2004):
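Cells were grown in 96-well plates and exposed to each compound for 48 hours at five concentrations; endpoints were interpolated linearly between bracketing concentrations, or set to the highest concentration if not reached. GI50: concentration for 50% inhibition of growth.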 Activity calls are given as the source filed them. Cut-off read from the data, not from the text of the source: active = GI50 up to about 1.1 µM and inactive = higher.

Assays:
Test in all cases: NCI-60 cell line screen, 48 h
[1] = test system: 786-0
[2] = test system: A498
[3] = test system: A549
[4] = test system: ACHN
[5] = test system: BT-549
[6] = test system: CAKI-1
[7] = test system: CCRF-CEM
[8] = test system: COLO 205
[9] = test system: DU-145
[10] = test system: EKVX
[11] = test system: HCC 2998
[12] = test system: HCT-116
[13] = test system: HCT-15
[14] = test system: HL-60
[15] = test system: HOP-62
[16] = test system: HOP-92
[17] = test system: HT-29
[18] = test system: Hs-578T
[19] = test system: IGROV-1
[20] = test system: KM12
[21] = test system: LOX IMVI
[22] = test system: M14
[23] = test system: MCF7
[24] = test system: MDA-MB-231
[25] = test system: MDA-MB-435
[26] = test system: MDA-N
[27] = test system: MOLT-4
[28] = test system: NCI-H23
[29] = test system: NCI-H460
[30] = test system: NCI-H522
[31] = test system: NCI/ADR-RES
[32] = test system: OVCAR-3
[33] = test system: OVCAR-4
[34] = test system: OVCAR-5
[35] = test system: OVCAR-8
[36] = test system: PC-3
[37] = test system: RPMI-8226
[38] = test system: SF-268
[39] = test system: SF-295
[40] = test system: SF-539
[41] = test system: SK-MEL-28
[42] = test system: SK-MEL-2
[43] = test system: SK-MEL-5
[44] = test system: SN12C
[45] = test system: SNB-19
[46] = test system: SNB-75
[47] = test system: SR
[48] = test system: SW-620
[49] = test system: T47D
[50] = test system: TK-10
[51] = test system: U-251
[52] = test system: UACC-257
[53] = test system: UACC-62
[54] = test system: UO-31
[55] = test system: K562
[56] = test system: Malme-3M
[57] = test system: NCI-H226
[58] = test system: RXF 393
[59] = test system: SK-OV-3

COc1cc(OC)nc(-n2c(N)c(C#N)c3ccc([N+](=O)[O-])cc3c2=O)n1
GI50 [1]: > 100 µM (inactive) | GI50 [2]: > 100 µM (inactive) | GI50 [3]: > 100 µM (inactive) | GI50 [4]: > 100 µM (inactive) | GI50 [5]: > 100 µM (inactive) | GI50 [6]: > 100 µM (inactive) | GI50 [7]: > 100 µM (inactive) | GI50 [8]: > 100 µM (inactive) | GI50 [9]: > 100 µM (inactive) | GI50 [10]: > 100 µM (inactive) | GI50 [11]: > 100 µM (inactive) | GI50 [12]: > 100 µM (inactive) | GI50 [13]: > 100 µM | GI50 [14]: > 100 µM (inactive) | GI50 [15]: > 100 µM (inactive) | GI50 [16]: > 100 µM (inactive) | GI50 [17]: > 100 µM (inactive) | GI50 [18]: > 100 µM (inactive) | GI50 [19]: 79.3 µM (inactive) | GI50 [20]: > 100 µM (inactive) | GI50 [21]: > 100 µM (inactive) | GI50 [22]: > 100 µM (inactive) | GI50 [23]: > 100 µM (inactive) | GI50 [24]: > 100 µM (inactive) | GI50 [25]: > 100 µM (inactive) | GI50 [26]: > 100 µM (inactive) | GI50 [27]: > 100 µM (inactive) | GI50 [28]: > 100 µM (inactive) | GI50 [29]: > 100 µM (inactive) | GI50 [30]: 18.3 µM (inactive) | GI50 [31]: > 100 µM (inactive) | GI50 [32]: > 100 µM (inactive) | GI50 [33]: > 100 µM (inactive) | GI50 [34]: > 100 µM (inactive) | GI50 [35]: > 100 µM (inactive) | GI50 [36]: > 100 µM (inactive) | GI50 [37]: > 100 µM (inactive) | GI50 [38]: > 100 µM (inactive) | GI50 [39]: > 100 µM (inactive) | GI50 [40]: > 100 µM (inactive) | GI50 [41]: > 100 µM (inactive) | GI50 [42]: > 100 µM (inactive) | GI50 [43]: > 100 µM (inactive) | GI50 [44]: > 100 µM (inactive) | GI50 [45]: > 100 µM (inactive) | GI50 [46]: > 100 µM (inactive) | GI50 [47]: > 100 µM (inactive) | GI50 [48]: > 100 µM (inactive) | GI50 [49]: > 100 µM (inactive) | GI50 [50]: > 100 µM (inactive) | GI50 [51]: 92.3 µM (inactive) | GI50 [52]: > 100 µM (inactive) | GI50 [53]: > 100 µM (inactive) | GI50 [54]: > 100 µM (inactive)

NNC(=O)CC(=O)Nc1ccc(C(=O)O)cc1
GI50 [1]: > 100 µM (inactive) | GI50 [3]: > 100 µM (inactive) | GI50 [4]: > 100 µM (inactive) | GI50 [5]: > 100 µM (inactive) | GI50 [6]: > 100 µM (inactive) | GI50 [7]: > 100 µM (inactive) | GI50 [8]: > 100 µM (inactive) | GI50 [9]: > 100 µM (inactive) | GI50 [10]: > 100 µM (inactive) | GI50 [12]: > 100 µM (inactive) | GI50 [13]: > 100 µM | GI50 [14]: > 100 µM (inactive) | GI50 [15]: > 100 µM (inactive) | GI50 [16]: > 100 µM (inactive) | GI50 [17]: > 100 µM (inactive) | GI50 [18]: > 100 µM (inactive) | GI50 [19]: > 100 µM (inactive) | GI50 [55]: > 100 µM (inactive) | GI50 [20]: > 100 µM (inactive) | GI50 [21]: > 100 µM (inactive) | GI50 [23]: > 100 µM (inactive) | GI50 [24]: > 100 µM (inactive) | GI50 [25]: > 100 µM (inactive) | GI50 [26]: > 100 µM (inactive) | GI50 [27]: > 100 µM (inactive) | GI50 [56]: > 100 µM (inactive) | GI50 [57]: > 100 µM (inactive) | GI50 [28]: > 100 µM (inactive) | GI50 [29]: > 100 µM (inactive) | GI50 [30]: > 100 µM (inactive) | GI50 [31]: > 100 µM (inactive) | GI50 [32]: > 100 µM (inactive) | GI50 [33]: > 100 µM (inactive) | GI50 [34]: > 100 µM (inactive) | GI50 [35]: > 100 µM (inactive) | GI50 [36]: > 100 µM (inactive) | GI50 [37]: > 100 µM (inactive) | GI50 [58]: > 100 µM (inactive) | GI50 [38]: > 100 µM (inactive) | GI50 [39]: > 100 µM (inactive) | GI50 [40]: > 100 µM (inactive) | GI50 [42]: > 100 µM (inactive) | GI50 [43]: > 100 µM (inactive) | GI50 [59]: > 100 µM (inactive) | GI50 [44]: > 100 µM (inactive) | GI50 [45]: > 100 µM (inactive) | GI50 [46]: > 100 µM (inactive) | GI50 [47]: > 100 µM (inactive) | GI50 [48]: > 100 µM (inactive) | GI50 [49]: > 100 µM (inactive) | GI50 [50]: > 100 µM (inactive) | GI50 [51]: > 100 µM (inactive) | GI50 [52]: > 100 µM (inactive) | GI50 [53]: > 100 µM (inactive) | GI50 [54]: > 100 µM (inactive)

COC(=O)CN(CC(=O)NCCNC(=O)OC(C)(C)C)C1CCCCC1N(CC(=O)OC)CC(=O)OC (stereo not drawn)
GI50 [1]: > 100 µM (inactive) | GI50 [2]: > 100 µM (inactive) | GI50 [3]: > 100 µM (inactive) | GI50 [4]: > 100 µM (inactive) | GI50 [5]: > 100 µM (inactive) | GI50 [6]: > 100 µM (inactive) | GI50 [7]: > 100 µM (inactive) | GI50 [8]: > 100 µM (inactive) | GI50 [9]: > 100 µM (inactive) | GI50 [10]: > 100 µM (inactive) | GI50 [11]: > 100 µM (inactive) | GI50 [12]: > 100 µM (inactive) | GI50 [13]: > 100 µM | GI50 [14]: > 100 µM (inactive) | GI50 [15]: > 100 µM (inactive) | GI50 [17]: > 100 µM (inactive) | GI50 [18]: > 100 µM (inactive) | GI50 [19]: > 100 µM (inactive) | GI50 [55]: > 100 µM (inactive) | GI50 [20]: > 100 µM (inactive) | GI50 [21]: > 100 µM (inactive) | GI50 [23]: > 100 µM (inactive) | GI50 [24]: > 100 µM (inactive) | GI50 [25]: > 100 µM (inactive) | GI50 [26]: > 100 µM (inactive) | GI50 [27]: > 100 µM (inactive) | GI50 [56]: > 100 µM (inactive) | GI50 [57]: 48 µM (inactive) | GI50 [28]: > 100 µM (inactive) | GI50 [29]: > 100 µM (inactive) | GI50 [30]: > 100 µM (inactive) | GI50 [31]: > 100 µM (inactive) | GI50 [32]: > 100 µM (inactive) | GI50 [34]: > 100 µM (inactive) | GI50 [35]: > 100 µM (inactive) | GI50 [36]: > 100 µM (inactive) | GI50 [37]: > 100 µM (inactive) | GI50 [38]: > 100 µM (inactive) | GI50 [39]: > 100 µM (inactive) | GI50 [40]: > 100 µM (inactive) | GI50 [41]: > 100 µM (inactive) | GI50 [42]: > 100 µM (inactive) | GI50 [43]: > 100 µM (inactive) | GI50 [59]: > 100 µM (inactive) | GI50 [44]: > 100 µM (inactive) | GI50 [45]: > 100 µM (inactive) | GI50 [47]: > 100 µM (inactive) | GI50 [48]: > 100 µM (inactive) | GI50 [49]: > 100 µM (inactive) | GI50 [50]: > 100 µM (inactive) | GI50 [51]: > 100 µM (inactive) | GI50 [52]: > 100 µM (inactive) | GI50 [53]: > 100 µM (inactive) | GI50 [54]: > 100 µM (inactive)
